According to the supplement of paper PMC8671470:

Assays:
Conditions in all cases: 72 h
[1] = system: myeloid leukemia patient primary cells Pat.6; assay: cell viability (% survival relative to DMSO control); higher = less cytotoxic
Summary of the method: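 Where an area under the curve appears, it was computed with the drc and PharmacoGx R packages from log-logistic fits. Those fits used four parameters. The underlying viability data came from CellTiter-Glo after 72 h, normalised to DMSO and 10 μM proteasome-inhibitor wells, with thawed, Ficoll-purified AML or CML patient mononuclear cells at 10,000 cells/well in RPMI 1640 with 10% FBS on 384-well plates pre-printed with 70 compounds at five tenfold concentrations (1–10,000 nM) in duplicate.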

[2] = system: myeloid leukemia patient primary cells Pat.5; assay: area under dose-response curve (viability, 1 nM-10 uM) (fraction (0-1)); higher = more sensitive
Procedure: (§1)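 AUC (0–1, higher = more sensitive) of the 5-point dose–response (1 nM–10 µM, 72 h, CellTiter-Glo) in primary AML/CML patient mononuclear cells. 0.030103 is the floor for inactive compounds.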

[3] = system: myeloid leukemia patient primary cells Pat.2; assay: as above
Procedure: as §1

[4] = system: myeloid leukemia patient primary cells Pat.14; assay: as above
Procedure: as §1

[5] = system: myeloid leukemia patient primary cells Pat.7; assay: as above
Procedure: as §1

[6] = system: myeloid leukemia patient primary cells Pat.3; assay: as above
Procedure: as §1

[7] = system: myeloid leukemia patient primary cells Pat.12; assay: as above
Procedure: as §1

[8] = system: myeloid leukemia patient primary cells Pat.9; assay: as above
Procedure: as §1

[9] = system: myeloid leukemia patient primary cells Pat.6; assay: as above
Procedure: as §1

[10] = system: myeloid leukemia patient primary cells Pat.13; assay: as above
Procedure: as §1

[11] = system: myeloid leukemia patient primary cells Pat.15; assay: as above
Procedure: as §1

[12] = system: myeloid leukemia patient primary cells Pat.10; assay: as above
Procedure: as §1

[13] = system: myeloid leukemia patient primary cells Pat.11; assay: as above
Procedure: as §1

[14] = system: myeloid leukemia patient primary cells Pat.8; assay: as above
Procedure: as §1

[15] = system: myeloid leukemia patient primary cells Pat.1; assay: as above
Procedure: as §1

[16] = system: myeloid leukemia patient primary cells Pat.4; assay: as above
Procedure: as §1

BV-173 = assay: cell viability (% survival relative to DMSO control); higher = less cytotoxic
Procedure: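 8x8 drug-combination matrices (0–5000 nM; rosiglitazone and lestaurtinib 0–1000 nM) were run in BV-173 cells for 72 h with CellTiter-Glo read-out. Survival is normalised to DMSO and 10 µM bortezomib and clipped at 100%.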

CC[C@@]1(O)C(=O)OCc2c1cc1n(c2=O)Cc2cc3c(CN(C)C)c(O)ccc3nc2-1 [Topotecan]
[1]
Conditions	cell viability [%]
1 nM	> 100
10 nM	97.4
100 nM	94.6
1000 nM	75.1
10000 nM	32.5

Conditions	area under dose-response curve
[2]	0.426
[3]	0.127
[4]	0.231
[5]	0.282
[6]	0.54
[7]	0.0406
[8]	0.245
[9]	0.147
[10]	0.0753
[11]	0.225
[12]	0.507
[13]	0.0826
[14]	0.0586
[15]	0.0609
[16]	0.132

CCC(=O)N1CCN(c2ccc(-n3c(=O)ccc4cnc5ccc(-c6cnc7ccccc7c6)cc5c43)cc2C(F)(F)F)CC1 [Torin1]
[1]
Conditions	cell viability [%]
1 nM	97.8
10 nM	89.3
100 nM	94.1
1000 nM	62.6
10000 nM	62.9

Conditions	area under dose-response curve
[2]	0.802
[4]	0.225
[5]	0.195
[7]	< 0.0301
[8]	0.36
[10]	0.218
[11]	0.614
[12]	0.477
[13]	0.183
[14]	0.0632
[15]	0.457
[16]	0.322

C[C@H](NC(=O)c1sccc1OCc1ccc(Cl)cc1)c1ccccc1
[1]
Conditions	cell viability [%]
1 nM	> 100
10 nM	98.1
100 nM	99.6
1000 nM	91.5
10000 nM	35.7

Conditions	area under dose-response curve
[2]	0.338
[3]	0.0349
[4]	0.121
[5]	0.253
[6]	0.124
[7]	< 0.0301
[8]	0.195
[9]	0.0893
[10]	0.0406
[11]	< 0.0301
[12]	0.13
[13]	< 0.0301
[14]	< 0.0301
[15]	0.0329
[16]	0.0955

Oc1ccc(Nc2nc(-c3ccc(Cl)cc3)cs2)cc1 [SKI II]
[1]
Conditions	cell viability [%]
1 nM	75.2
10 nM	98.7
100 nM	95.4
1000 nM	93.1
10000 nM	16.2

Conditions	area under dose-response curve
[3]	0.0376
[4]	0.304
[5]	0.424
[6]	0.238
[7]	0.0339
[8]	0.341
[9]	0.0895
[10]	0.0533
[11]	0.0495
[12]	0.291
[13]	< 0.0301
[14]	0.054
[15]	0.054
[16]	0.0605

O=C(C1CC1)N1CC[C@@H](C=C2NNC(=O)N2c2ccc(-c3ccc4occc4c3)cc2)C1 + O=C(c1c2ccccc2cc2ccccc12)N1CCC(N2CCC[C@@H](C(=O)N3CCOCC3)C2)CC1 [CP-640186]
cell viability [%], BV-173
Conditions	drug1 concentration 5 nM	drug1 concentration 10 nM	drug1 concentration 50 nM	drug1 concentration 100 nM	drug1 concentration 500 nM	drug1 concentration 1000 nM	drug1 concentration 5000 nM
drug2 concentration 5 nM	96.3	> 100	> 100	> 100	97.3	98.1	77.8
drug2 concentration 10 nM	> 100	> 100	87.8	> 100	> 100	96.1	58.3
drug2 concentration 50 nM	> 100	> 100	> 100	> 100	91.1	78.9	97.1
drug2 concentration 100 nM	> 100	> 100	> 100	> 100	> 100	> 100	> 100
drug2 concentration 500 nM	> 100	> 100	> 100	> 100	> 100	> 100	96.6
drug2 concentration 1000 nM	86.4	> 100	> 100	91.9	> 100	> 100	> 100
drug2 concentration 5000 nM	> 100	> 100	87.5	99.5	91.6	> 100	> 100

N#CC(C#N)=NNc1ccc(OC(F)(F)F)cc1 [FCCP]
[1]
Conditions	cell viability [%]
1 nM	87
10 nM	97.4
100 nM	88.8
1000 nM	65.5
10000 nM	20

Conditions	area under dose-response curve
[2]	0.825
[3]	0.0623
[4]	0.316
[5]	0.366
[6]	0.361
[7]	0.0898
[8]	0.361
[9]	0.175
[10]	0.211
[11]	0.159
[12]	0.466
[13]	0.158
[14]	0.116
[15]	0.214
[16]	0.229

O=C(C1CC1)N1CC[C@@H](C=C2NNC(=O)N2c2ccc(-c3ccc4occc4c3)cc2)C1
[1]
Conditions	cell viability [%]
1 nM	98.1
10 nM	97.7
100 nM	> 100
1000 nM	89.4
10000 nM	79.5

Conditions	area under dose-response curve
[2]	0.292
[3]	< 0.0301
[4]	< 0.0301
[5]	< 0.0301
[6]	< 0.0301
[7]	< 0.0301
[8]	0.235
[9]	< 0.0301
[10]	< 0.0301
[11]	< 0.0301
[12]	0.082
[13]	< 0.0301
[14]	< 0.0301
[15]	< 0.0301
[16]	< 0.0301

Cc1c(-c2ccc(-c3ccccc3F)cc2)nc2ccc(F)cc2c1C(=O)O [Brequinar]
[1]
Conditions	cell viability [%]
1 nM	> 100
10 nM	> 100
100 nM	93.9
1000 nM	97.8
10000 nM	96.8

Conditions	area under dose-response curve
[2]	0.433
[3]	< 0.0301
[4]	0.142
[6]	0.588
[7]	< 0.0301
[8]	0.532
[9]	< 0.0301
[10]	< 0.0301
[11]	< 0.0301
[13]	< 0.0301
[14]	< 0.0301
[15]	< 0.0301
[16]	< 0.0301

C=C(C)[C@H]1Cc2c(ccc3c2O[C@@H]2COc4cc(OC)c(OC)cc4[C@@H]2C3=O)O1 [Rotenone]
[1]
Conditions	cell viability [%]
1 nM	44.2
10 nM	75.4
100 nM	47.2
1000 nM	37.3
10000 nM	23.7

Conditions	area under dose-response curve
[2]	0.99
[4]	0.41
[5]	0.329
[6]	0.57
[7]	0.0808
[8]	0.55
[9]	0.399
[10]	0.391
[11]	0.465
[12]	0.411
[13]	< 0.0301
[14]	0.322
[15]	0.112
[16]	0.187

O=C(C1CC1)N1CC[C@@H](C=C2NNC(=O)N2c2ccc(-c3ccc4occc4c3)cc2)C1 + CS(=O)(=O)N1CCN(Cc2cc3nc(-c4cccc5[nH]ncc45)nc(N4CCOCC4)c3s2)CC1 [Pictilisib]
cell viability [%], BV-173
Conditions	drug1 concentration 5 nM	drug1 concentration 10 nM	drug1 concentration 50 nM	drug1 concentration 100 nM	drug1 concentration 500 nM	drug1 concentration 1000 nM	drug1 concentration 5000 nM
drug2 concentration 5 nM	> 100	> 100	95	> 100	84.4	77.5	84.8
drug2 concentration 10 nM	> 100	> 100	> 100	> 100	95.5	> 100	92.2
drug2 concentration 50 nM	> 100	> 100	> 100	> 100	94.4	99.1	59.7
drug2 concentration 100 nM	81	> 100	> 100	94.8	94.3	87.4	> 100
drug2 concentration 500 nM	> 100	> 100	93.8	> 100	> 100	98.7	89.3
drug2 concentration 1000 nM	89.7	99.2	> 100	92.8	80	99.9	78.4
drug2 concentration 5000 nM	87.6	92.1	84.8	> 100	75.7	70.6	> 100
